Results as given in patent US20050152858A1, “Solubilizing agents for active or functional organic compounds” (ISP INVESTMENTS INC., priority 2003, published 2005).
Where two headings read alike, the source gives them in different places.

Legend:
[1] = Enhancement of UVA absorption (UV spectrum of sunscreen in solvent); assay type: physicochemical; conditions: for λmax of E-517 in the solvent: 10 mg sunscreen E-517 (avobenzone) in 1 L of solvent; for λmax of E-567 in the solvent: 10 mg sunscreen E-567 (benzophenone-3) in 1 L of solvent
Procedure: A 10-mg portion of sunscreen was dissolved in 1 L of solvent, and the UV spectrum of the solution was measured using a Cary 1 E UV-Visible spectrophotometer.

[2] = Solubility of solid organic sunscreens in various solvents
Procedure: Predetermined solutions (w/w) were prepared at 40-50° C. using a given solvent-sunscreen combination. The solutions were allowed to stand for 1 week at 25° C. in a constant temperature chamber. A small seed crystal was initially added at 25° C. to hasten equilibration. Solubility was measured by GLC using standard solutions to calibrate the instrument.

Row | SMILES | λmax of E-517 in the solvent [1] | λmax of E-567 in the solvent [1] | also measured
1 | O=C(OCCc1ccccc1)c1ccccc1 [2-phenylethyl benzoate, 2-Phenylethyl Benzoate] | 362 nm | 329 nm | 
2 | CCO [Ethanol, reference compound] | 358 nm | 325 nm | 
3 | O=C(Cc1cccc(C(F)(F)F)c1)OCc1ccccc1 [benzyl α,α,α-trifluoro-m-tolylacetate, Benzyl α,α,α-Trifluoro-m-tolylacetate] |  |  | Solubility of Avobenzone in the solvent ([2]; sunscreen Avobenzone, 1 week at 25° C., seeded, GLC): 15 % w/w; Solubility of MBC in the solvent ([2]; sunscreen MBC (4-methylbenzylidene camphor), 1 week at 25° C., seeded, GLC): 34 % w/w; Solubility of Oxybenzone in the solvent ([2]; sunscreen Oxybenzone, 1 week at 25° C., seeded, GLC): 28 % w/w
4 | CC(COC(=O)c1ccccc1)OC(=O)c1ccccc1 (centres unmarked) [propylene glycol dibenzoate, Propylene Glycol Dibenzoate] |  |  | Solubility of MBC in the solvent [2]: 33 % w/w
